Measurements taken from the supplement of paper PMC10307832.

Legend:
Assay in all cases: relative viability (nuclei count vs DMSO), 5 days (fraction); higher = more cells survive
[1] = compound: Nc1ccn([C@@H]2O[C@H](CO)[C@@H](O)C2(F)F)c(=O)n1 [Gemcitabine] + CCNC(=O)c1noc(-c2cc(C(C)C)c(O)cc2O)c1-c1ccc(CN2CCOCC2)cc1 [Luminespib] (partner 0.01 µM)
Outline: (§1)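 Dosing by pin tool came one day after lung cancer cell lines were seeded in 1536-well plates, using either one drug or a fixed anchor-drug dose plus five library-drug doses (not always all listed) in √10 steps. After 5 days, nuclei were counted on 4× images. Relative viability is treated-well nuclei count divided by vehicle-well nuclei count, and values are medians of duplicate plates.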

[2] = compound: Nc1ccn([C@@H]2O[C@H](CO)[C@@H](O)C2(F)F)c(=O)n1 [Gemcitabine] + Cc1nc(Nc2ncc(C(=O)Nc3c(C)cccc3Cl)s2)cc(N2CCN(CCO)CC2)n1 [Dasatinib] (partner 0.075 µM)
Outline: as §1

[3] = compound: Nc1ccn([C@@H]2O[C@H](CO)[C@@H](O)C2(F)F)c(=O)n1 [Gemcitabine] + COc1cc2c(Oc3ccc(NC(=O)C4(C(=O)Nc5ccc(F)cc5)CC4)cc3F)ccnc2cc1OCCCN1CCOCC1 [Foretinib] (partner 0.25 µM)
Outline: as §1

[4] = compound: Nc1ccn([C@@H]2O[C@H](CO)[C@@H](O)C2(F)F)c(=O)n1 [Gemcitabine] + Nc1ncn([C@H]2C[C@H](O)[C@@H](CO)O2)c(=O)n1 [Decitabine] (partner 2 µM)
Outline: as §1

Cell Line | relative viability ([1]; first compound 0.001 µM) | relative viability ([1]; first compound 0.003162 µM) | relative viability ([1]; first compound 0.01 µM) | relative viability ([1]; first compound 0.03162 µM) | relative viability ([1]; first compound 0.1 µM) | relative viability ([2]; first compound 0.001 µM) | relative viability ([2]; first compound 0.003162 µM) | relative viability ([2]; first compound 0.01 µM) | relative viability ([2]; first compound 0.03162 µM) | relative viability ([2]; first compound 0.1 µM) | relative viability ([3]; first compound 0.001 µM) | relative viability ([3]; first compound 0.003162 µM) | relative viability ([3]; first compound 0.01 µM) | relative viability ([3]; first compound 0.03162 µM) | relative viability ([3]; first compound 0.1 µM) | relative viability ([4]; first compound 0.001 µM) | relative viability ([4]; first compound 0.003162 µM) | relative viability ([4]; first compound 0.01 µM) | relative viability ([4]; first compound 0.03162 µM) | relative viability ([4]; first compound 0.1 µM)
PC-3 [JPC-3] | 0.79 | 0.685 | 0.415 | 0.349 | 0.314 | 1.01 | 0.925 | 0.635 | 0.252 | 0.207 | 1.15 | 0.847 | 0.605 | 0.28 | 0.228 | 0.935 | 0.573 | 0.602 | 0.524 | 0.465
PC-14 | 0.155 | 0.135 | 0.132 | 0.08 | 0.109 | 0.262 | 0.12 | 0.0174 | 0.0131 | 0.016 | 0.953 | 0.649 | 0.293 | 0.0827 | 0.0507 | 0.217 | 0.0953 | 0.0507 | 0.0388 | 0.0405
RERF-LC-KJ | 1.17 | 1.45 | 1.13 | 0.458 | 0.319 | 0.837 | 0.879 | 0.768 | 0.291 | 0.19 | 0.942 | 0.89 | 0.958 | 0.799 | 0.326 | 0.831 | 0.701 | 0.636 | 0.529 | 0.324
SK-LU-1 | 0.175 | 0.197 | 0.188 | 0.18 | 0.169 | 0.165 | 0.123 | 0.106 | 0.112 | 0.131 | 0.728 | 0.441 | 0.217 | 0.168 | 0.164 | 0.623 | 0.635 | 0.376 | 0.24 | 0.246
SK-MES-1 | 0.748 | 0.328 | 0.166 | 0.239 | 0.153 | 0.297 | 0.171 | 0.116 | 0.119 | 0.114 | 0.987 | 0.646 | 0.319 | 0.191 | 0.201 | 0.387 | 0.264 | 0.168 | 0.172 | 0.152
SW 900 | 0.147 | 0.187 | 0.164 | 0.161 | 0.148 | 0.526 | 0.138 | 0.0977 | 0.0689 | 0.0628 | 0.697 | 0.511 | 0.117 | 0.0938 | 0.0882 | 0.325 | 0.372 | 0.267 | 0.148 | 0.169
SW 1573 | 0.192 | 0.166 | 0.0849 | 0.154 | 0.112 | 0.481 | 0.258 | 0.0669 | 0.0389 | 0.0494 | 1.03 | 0.776 | 0.32 | 0.131 | 0.0835 | 0.529 | 0.158 | 0.113 | 0.0711 | 0.0511
UMC-11 | 1.18 | 1.15 | 0.834 | 0.829 | 0.47 | 0.464 | 0.516 | 0.415 | 0.368 | 0.223 | 1.17 | 1.1 | 0.948 | 0.764 | 0.391 | 0.57 | 0.417 | 0.518 | 0.37 | 0.311
